target: T1, FXR ligand binding domain (GST-FXR LBD fusion protein) (Homo sapiens, UniProt Q96RI1); test: Radioligand binding assay (scintillation proximity, radioligand displacement); details: GST-FXR LBD on SPA beads, 20 nM radioligand, test compound 6×10^−9 M to 2.5×10^−5 M
T1 construct: made in house; host or cells: E. coli BL21(pLysS)
T1 sequence (Q96RI1 193-472 isoform Q96RI1-2 limits assumed): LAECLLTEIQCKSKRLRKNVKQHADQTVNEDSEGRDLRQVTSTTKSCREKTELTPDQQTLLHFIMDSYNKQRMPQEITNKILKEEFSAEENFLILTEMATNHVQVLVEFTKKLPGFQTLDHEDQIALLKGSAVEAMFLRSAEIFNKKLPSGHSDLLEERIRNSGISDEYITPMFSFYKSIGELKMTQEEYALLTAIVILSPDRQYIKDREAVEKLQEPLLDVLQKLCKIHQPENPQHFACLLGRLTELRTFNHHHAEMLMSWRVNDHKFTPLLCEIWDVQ
Description: The following tests were carried out in order to determine the activity of the compounds of formula (I). Background information on the binding assay can be found in: Nichols J S et al. “Development of a scintillation proximity assay for peroxisome proliferator-activated receptor gamma ligand binding domain”, (1998) Anal. Biochem. 257: 112-119.
Bacterial and mammalian expression vectors were constructed to produce glutathione-s-transferase (GST) and Gal4 DNA binding domain (GAL) proteins fused to the ligand binding domain (LBD) of human FXR (aa 193-473). To accomplish this, the portions of the sequences encoding the FXR LBD were amplified by polymerase chain reaction (PCR) from a full-length clone by PCR and then subcloned into the plasmid vectors. The final clone was verified by DNA sequence analysis.
The induction, expression, and subsequent purification of GST-LBD fusion protein was performed in E. coli strain BL21(pLysS) cells by standard methods (Current Protocols in Molecular Biology, Wiley Press, ed. Ausubel et al.).
Radioligand Binding Assay
Binding of test substances to the FXR ligand binding domain was assessed in a radioligand displacement assay. The assay was performed in a buffer consisting of 50 mM Hepes, pH 7.4, 10 mM NaCl, 5 mM MgCl2, 0.01% CHAPS. For each reaction well in a 96-well plate, 40 nM of GST-FXR LBD fusion protein was bound to 10 μg glutathione ytrium silicate SPA beads (PharmaciaAmersham) in a final volume of 50 μl by shaking. A radioligand (e.g., 20 nM of 2,N-dicyclohexyl-2-[2-(2,4 dimethoxy-phenyl)-benzoimidazol-1-yl]-acetamide) and test compounds were added, and scintillation proximity counting was performed. All binding assays were performed in 96-well plates and the amount of bound ligand was measured on a Packard TopCount using OptiPlates (Packard). Dose response curves were performed within a range of test compound concentrations from 6×10^−9 M to 2.5×10^−5 M and IC50 values were calculated.

| IC50 [µM] | Molecule |
| --- | --- |
| 0.2 | 6-{(R)-2-Cyclohexyl-2-[5,6-difluoro-2-((S)-methoxy-phenyl-methyl)-benzoimidazol-1-yl]-acetylamino}-nicotinic acid [Example 10A] |
| 0.1 | 6-{(S)-2-Cyclohexyl-2-[5,6-difluoro-2-((S)-methoxy-phenyl-methyl)-benzoimidazol-1-yl]-acetylamino}-nicotinic acid [Example 10B] |
| 1.9 | CO[C@@H](c1ccccc1)c1nc2cc(F)c(F)cc2n1[C@@H](C(=O)Nc1ccc(C(=O)O)cc1)C1CCCCC1 (single isomer, unassigned) [Example 1A] |
| 1 | CO[C@@H](c1ccccc1)c1nc2cc(F)c(F)cc2n1[C@H](C(=O)Nc1ccc(C(=O)O)cc1)C1CCCCC1 (single isomer, unassigned) [Example 1B] |
| 1.6 | CO[C@H](c1ccccc1)c1nc2cc(F)c(F)cc2n1[C@@H](C(=O)Nc1ccc(C(=O)O)cc1)C1CCCCC1 (single isomer, unassigned) [Example 2A] |
| 0.3 | CO[C@H](c1ccccc1)c1nc2cc(F)c(F)cc2n1[C@H](C(=O)Nc1ccc(C(=O)O)cc1)C1CCCCC1 (single isomer, unassigned) [Example 2B] |
| 0.5 | CO[C@@H](c1ccccc1)c1nc2cc(F)c(F)cc2n1[C@@H](C(=O)Nc1ccc(C(=O)O)cc1F)C1CCCCC1 (single isomer, unassigned) [Example 3A] |
| 0.4 | CO[C@@H](c1ccccc1)c1nc2cc(F)c(F)cc2n1[C@H](C(=O)Nc1ccc(C(=O)O)cc1F)C1CCCCC1 (single isomer, unassigned) [Example 3B] |
| 0.5 | CO[C@H](c1ccccc1)c1nc2cc(F)c(F)cc2n1[C@@H](C(=O)Nc1ccc(C(=O)O)cc1F)C1CCCCC1 (single isomer, unassigned) [Example 4A] |
| 0.03 | CO[C@H](c1ccccc1)c1nc2cc(F)c(F)cc2n1[C@H](C(=O)Nc1ccc(C(=O)O)cc1F)C1CCCCC1 (single isomer, unassigned) [Example 4B] |
| 0.3 | CO[C@@H](c1ccccc1)c1nc2cc(F)c(F)cc2n1[C@@H](C(=O)Nc1ccc(C(=O)O)cc1C)C1CCCCC1 (single isomer, unassigned) [Example 5A] |
| 1.1 | CO[C@@H](c1ccccc1)c1nc2cc(F)c(F)cc2n1[C@H](C(=O)Nc1ccc(C(=O)O)cc1C)C1CCCCC1 (single isomer, unassigned) [Example 5B] |
| 5 | CO[C@H](c1ccccc1)c1nc2cc(F)c(F)cc2n1[C@@H](C(=O)Nc1ccc(C(=O)O)cc1C)C1CCCCC1 (single isomer, unassigned) [Example 6A] |
| 0.06 | CO[C@H](c1ccccc1)c1nc2cc(F)c(F)cc2n1[C@H](C(=O)Nc1ccc(C(=O)O)cc1C)C1CCCCC1 (single isomer, unassigned) [Example 6B] |
| 0.3 | CO[C@@H](c1ccccc1)c1nc2cc(F)c(F)cc2n1[C@@H](C(=O)Nc1ccc(C(=O)O)cc1Cl)C1CCCCC1 (single isomer, unassigned) [Example 7A] |
| 0.02 | CO[C@@H](c1ccccc1)c1nc2cc(F)c(F)cc2n1[C@H](C(=O)Nc1ccc(C(=O)O)cc1Cl)C1CCCCC1 (single isomer, unassigned) [Example 7B] |
| 0.4 | CO[C@H](c1ccccc1)c1nc2cc(F)c(F)cc2n1[C@@H](C(=O)Nc1ccc(C(=O)O)cc1Cl)C1CCCCC1 (single isomer, unassigned) [Example 8A] |
| 0.06 | CO[C@H](c1ccccc1)c1nc2cc(F)c(F)cc2n1[C@H](C(=O)Nc1ccc(C(=O)O)cc1Cl)C1CCCCC1 (single isomer, unassigned) [Example 8B] |
| 1.7 | CO[C@@H](c1ccccc1)c1nc2cc(F)c(F)cc2n1[C@@H](C(=O)Nc1ccc(C(=O)O)cn1)C1CCCCC1 (single isomer, unassigned) [Example 9A] |
| 2.6 | CO[C@@H](c1ccccc1)c1nc2cc(F)c(F)cc2n1[C@H](C(=O)Nc1ccc(C(=O)O)cn1)C1CCCCC1 (single isomer, unassigned) [Example 9B] |
| 21 | CO[C@H](c1ccccc1)c1nc2cc(F)ccc2n1C(C(=O)N[C@H]1CC[C@H](CC(=O)O)CC1)C1CCCCC1 (stereo partly drawn) [Example 11, (trans-4-{2-Cyclohexyl-2-[5-fluoro-2-((R)-methoxy-phenyl-methyl)-benzoimidazol-1-yl]-acetylamino}-cyclohexyl)-acetic acid] |
| 6.8 | CO[C@H](c1ccccc1)c1nc2cc(F)ccc2n1C(C(=O)N[C@H]1CC[C@H](C(=O)O)CC1)C1CCCCC1 (stereo partly drawn) [Example 12, trans-4-{2-Cyclohexyl-2-[5-fluoro-2-((R)-methoxy-phenyl-methyl)-benzoimidazol-1-yl]-acetylamino}-cyclohexanecarboxylic acid] |
